Experiments:
[1] = Inhibitory activity expressed as the concentration required to inhibit platelet-activating factor (PAF) induced maximum aggregation by 50%
[2] = as above; remark: listed apart in the source

| Compound | IC50 [1] [nM] | IC50 [2] [nM] |
| --- | --- | --- |
| CCCCCCCCCCCCCCCCOCC1OCC(COC(=O)N(Cc2cccc[n+]2CC)C(C)=O)O1 (stereo not given) | 83 | – |
| CCCCCCCCCCCCCCCCCCOCC1COC(COC(=O)NCc2cc[n+](CC)cc2)C1 (stereo not given) | 8000 | – |
| CCCCCCCCCCCCCCCCCC1OCC(COCCCCCC[N+]2(C)CCOCC2)O1 (stereo not given) | 10000 | – |
| CCCCCCCCCCCCCC1OCC(COC(=O)CCCCC[n+]2ccsc2)O1 (stereo not given) | 20000 | – |
| CCCCCCCCCCCCCCC1COC(COCCCCCC[n+]2ccsc2)C1 (stereo not given) | 2100 | – |
| CCCCCCCCCCCCCCCCOCC1COC(COC(=O)N(Cc2cccc[n+]2CC)C(C)=O)C1 (stereo not given) | 18 | 8.2 |
| CCCCCCCCCCCCCCCCCC1OCC(COC(=O)CCCCC[n+]2ccsc2)O1 (stereo not given) | 1100 | – |
| CCCCCCCCCCCCCCOCC1COC(COCCCCCC[n+]2ccsc2)C1 (stereo not given) | 1400 | – |
| CCCCCCCCCCCCCCCCCC1OCC(COP(=O)([O-])OCC[n+]2ccccc2)O1 (stereo not given) | > 100000 | – |
| CCCCCCCCCCCCCCCCCCOCC1OCC(COC(=O)N(Cc2cccc[n+]2CC)C(C)=O)O1 (stereo not given) | 140 | – |
| CCCCCCCCCCCCCCCCCC1OCC(COCCCCCC[n+]2ccccc2)O1 (stereo not given) | 3000 | – |
| CCCCCCCCCCCCCCOCC1COC(COC(=O)N(Cc2cccc[n+]2CC)C(C)=O)C1 (stereo not given) | 85 | – |
| CCCCCCCCCCCCCCCCCCOCC1COC(COC(=O)CCCCC[n+]2ccsc2)C1 (stereo not given) | 9200 | – |
| CCCCCCCCCCCCCCCCOCC1COC(COC(=O)CCCCC[n+]2ccsc2)C1 (stereo not given) | 3600 | – |
| CCCCCCCCCCCCCCC1COC(COP(=O)([O-])OCC[n+]2ccccc2)C1 (stereo not given) | > 100000 | – |
| CCCCCCCCCCCCCCCCCCOCC1CC(COCCCCCCC[n+]2ccsc2)CO1 (stereo not given) | 3900 | – |
| CCCCCCCCCCCCCCCCOCC1COC(COC(=O)NCCc2cccc[n+]2CC)C1 (stereo not given) | 2800 | – |
| CCCCCCCCCCCCCCCC1CCC(COC(=O)CCCCC[n+]2ccsc2)O1 (stereo not given) | 3100 | – |
| CCCCCCCCCCCCCCC1COC(COP(=O)([O-])OCC[n+]2ccsc2)C1 (stereo not given) | > 100000 | – |
| CCCCCCCCCCCCCCC1COC(COC(=O)CCCCC[n+]2ccsc2)C1 (stereo not given) | > 50000 | – |
| CCCCCCCCCCCCCCCCCC1OCC(COCCCCCCCC[n+]2ccsc2)O1 (stereo not given) | 3700 | – |
| CCCCCCCCCCCCCCCCCCOCC1CC(COC(=O)CCCCC[n+]2ccsc2)CO1 (stereo not given) | 1500 | – |
| CCCCCCCCCCCCCCCCCC1OCC(COCCCCCC[n+]2cccc3ccccc32)O1 (stereo not given) | 2700 | – |

| Compound | IC50 [1] [nM] | IC50 [2] [nM] |
| --- | --- | --- |
| CCCCCCCCCCCCCCOCC1COC(COCCCCCCC[n+]2ccsc2)C1 (stereo not given) | 1700 | – |
| CCCCCCCCCCCCCCCCCCOCC1COC(COC(=O)N(Cc2cccc[n+]2CC)C(C)=O)O1 (stereo not given) | 94 | – |
| CCCCCCCCCCCCCCCCOCC1OCC(COCCCCCC[n+]2ccsc2)O1 (stereo not given) | 1300 | – |
| CCCCCCCCCCCCCCCCOCC1COC(COC(=O)N(CCc2cccc[n+]2CC)C(C)=O)C1 (stereo not given) | 2600 | – |
| CCCCCCCCCCCCCCOCC1COC(COC(=O)N(Cc2cccc[n+]2CC)C(C)=O)O1 (stereo not given) | 110 | – |
| CCCCCCCCCCCCCCCC1CCC(COC(=O)N(Cc2cccc[n+]2CC)C(C)=O)O1 (stereo not given) | 80 | – |
| CCCCCCCCCCCCCCCCCC1OCC(COCCCCCC[n+]2ccsc2)O1 (stereo not given) | 1400 | – |
| CCCCCCCCCCCCCCCCCCOCC1COC(COC(=O)N(Cc2cc[n+](CC)cc2)C(C)=O)C1 (stereo not given) | 1600 | – |
| CCCCCCCCCCCCCCCCCC1CCC(COC(=O)N(Cc2cccc[n+]2CC)C(C)=O)O1 (stereo not given) | 71 | – |
| CCCCCCCCCCCCCCC1COC(COC(=O)N(Cc2cccc[n+]2CC)C(C)=O)C1 (stereo not given) | 140 | – |
| CCCCCCCCCCCCCCC1COC(COP(=O)([O-])OCC[N+](C)(C)C)C1 (stereo not given) | > 200000 | – |
| CCCCCCCCCCCCCCCC1CCC(COCCCCCC[n+]2ccsc2)O1 (stereo not given) | 1300 | – |
| CCCCCCCCCCCCCCCCCCOCC1COC(COC(=O)N(Cc2cccc[n+]2CC)C(C)=O)C1 (stereo not given) | 52 | – |
| CCCCCCCCCCCCCCCCCC1OCC(COCCCCCC[n+]2cscc2C)O1 (stereo not given) | 3100 | – |
| CCCCCCCCCCCCCCCCOCC1OCC(COC(=O)CCCCC[n+]2ccsc2)O1 (stereo not given) | 4900 | – |
| CCCCCCCCCCCCCCCCOCC1COC(COC(=O)NCc2cccc[n+]2CC)C1 (stereo not given) | 5300 | – |
| CCCCCCCCCCCCCCC1COC(COCCCCCCC[n+]2ccsc2)C1 (stereo not given) | 830 | – |
| CCCCCCCCCCCCCCCCCC1OCC(COCCCCCC[N+](C)(C)C)O1 (stereo not given) | 2400 | – |
| CCCCCCCCCCCCCCC1COC(COCCCC[n+]2ccsc2)C1 (stereo not given) | 39000 | – |
| CCCCCCCCCCCCCCCCCC1OCC(COC(=O)N(Cc2cccc[n+]2CC)C(C)=O)O1 (stereo not given) | 210 | – |
| CCCCCCCCCCCCCCCCOCC1CC(COCCCCCC[n+]2ccsc2)CO1 (stereo not given) | 1400 | – |
| CCCCCCCCCCCCCCCCOCC1OCC(COCCCC[n+]2ccsc2)O1 (stereo not given) | 1200 | – |
| CCCCCCCCCCCCCCCCOCC1COC(COCCCCCC[n+]2ccsc2)C1 (stereo not given) | 540 | – |

| Compound | IC50 [1] [nM] | IC50 [2] [nM] |
| --- | --- | --- |
| CCCCCCCCCCCCCCCCOCC1CCC(COC(=O)N(Cc2cccc[n+]2CC)C(C)=O)O1 (stereo not given) | 99 | – |
| CCCCCCCCCCCCCCCCCCOCC1COC(COC(=O)N(Cc2ccc[n+](CC)c2)C(C)=O)C1 (stereo not given) | 2500 | – |
| CCCCCCCCCCCCCCCCCC1OCC(COCCCC[n+]2ccsc2)O1 (stereo not given) | 6000 | – |
| CCCCCCCCCCCCCCCCC1COC(COCCCCCCC[n+]2ccsc2)C1 (stereo not given) | 1700 | – |
| CCCCCCCCCCCCCCCC1OCC(COC(=O)CCCCC[n+]2ccsc2)O1 (stereo not given) | 3000 | – |
| CCCCCCCCCCCCCCCCCC1OCC(COP(=O)([O-])OCC[N+](C)(C)C)O1 (stereo not given) | > 100000 | – |
| CCCCCCCCCCCCCCC1COC(COCCCCCCCC[n+]2ccsc2)C1 (stereo not given) | 1100 | – |
| CCCCCCCCCCCCCCCCOCC1COC(COC(=O)N(Cc2cccc[n+]2C)C(C)=O)C1 (stereo not given) | 200 | – |
| CCCCCCCCCCCCOCC1COC(COCCCCCCC[n+]2ccsc2)C1 (stereo not given) | 1100 | – |
| CCCCCCCCCCCCCCCCOCC1COC(COC(=O)N(Cc2ccccn2)C(C)=O)C1 (stereo not given) | 11000 | – |
| CCCCCCCCCCCCCCCCOCC1COC(COC(=O)N(C(C)=O)c2ccc[n+](CC)c2)C1 (stereo not given) | 2300 | – |
| CCCCCCCCCCCCCCCCCC1COC(COC(=O)N(Cc2cccc[n+]2CC)C(C)=O)O1 (stereo not given) | 24 | – |
| CCCCCCCCCCCCCCCCOCC1COC(COC(=O)N(C(C)=O)c2cc[n+](CC)cc2)C1 (stereo not given) | 860 | – |
| CCCCCCCCCCCCCCCCCCCC1OCC(COC(=O)CCCCC[n+]2ccsc2)O1 (stereo not given) | 5500 | – |
| CCCCCCCCCCCCCCC1COC(COCCCCCC[n+]2cccc3ccccc32)C1 (stereo not given) | 1900 | – |
| CCCCCCCCCCCCCCCCCCC1COC(COC(=O)N(Cc2cccc[n+]2CC)C(C)=O)C1 (stereo not given) | 470 | – |
| CCCCCCCCCCCCCCCCCCOCC1COC(COC(=O)N=c2ccn(CC)cc2)C1 (stereo not given) | 1900 | – |
| CCCCCCCCCCCCCCCCCCOCC1CC(COCCCCC[n+]2ccsc2)CO1 (stereo not given) | 2100 | – |
| CC1OCC(COC(=O)CCCCC[n+]2ccsc2)O1 (stereo not given) | 150000 | – |
| CCCCCCCCCCCCCCC1COC(COCCCCCC[N+](C)(C)C)C1 (stereo not given) | 8200 | – |
| CCCCCCCCCCCCCCCCOCC1COC(COC(=O)N(Cc2cccc[n+]2CC)C(=O)OCC)C1 (stereo not given) | 73 | – |
| CCCCCCCCCCCCCCCCOCC1COC(COC(=O)N(Cc2cccc[n+]2CC)C(C)=O)O1 (stereo not given) [2-{[Acetyl-(4-hexadecyloxymethyl-[1,3]dioxolan-2-ylmethoxycarbonyl)-amino]-methyl}-1-ethyl-pyridinium; chloride] | 19 | 15 |
